Assay results taken from ChEMBL document CHEMBL1201862, “PubChem BioAssay data set” (2004).
Active and inactive are the calls of the source.

What was measured:
Genome polyprotein = Genome polyprotein (dengue virus type 2, UniProt P29990); assay: flavivirus cap methylation enzyme inhibition – biochemical, confirmation dose response, primary screen (AID 588689); assay type: functional
[1] = target: Glucose-6-phosphate 1-dehydrogenase (Homo sapiens, UniProt P11413); assay: inhibition of Homo sapiens G6PD, dose series – biochemical, fluorescence, selectivity assay for P. falciparum G6PD inhibitor project, dose response (AID 504792); assay type: functional
[2] = target: ATP-dependent molecular chaperone HSP82 (Candida albicans (strain WO-1) (Yeast), UniProt C4YTQ8); assay: steroid-induced GRE reporter decrease in yeast – S. cerevisiae, luminescence, Hsp90 inhibitor project, dose response (AID 2400); assay type: functional, cell-based;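 further: beta-galactosidase luminescence from glucocorticoid response element reporter as proxy for Hsp90 function; inhibitor potency where signal loss means Hsp90 inhibition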
BJ = assay: BJ-TERT fibroblast viability loss – cell-based, RAS-independent, luminescence, dose response (AID 1933); assay type: functional; details: Homo sapiens
[3] = loss of viability in HepG2 cells – cell-based, CellTiter-Glo, cherry-picked, cytotoxicity control for Shn3 inhibitor project, dose response (AID 624134); assay type: functional
[4] = Counterscreen for AddAB inhibitors: absorbance-based bacterial cell-based high throughput dose response assay for inhibitors of bacterial viability. [Related pubchem assays (depositor defined):AID435030, AID449728, AID449731, AID488942, AID488955, AID488956]; assay type: functional
[5] = target: T1, Heat shock factor protein 1 (Mus musculus, UniProt P38532); assay: decrease of HSF1-responsive luciferase luminescence – cell-based, NIH3T3, dose retest, confirmation (AID 2382); assay type: functional;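 further: NIH3T3 fibroblasts with HSF1-driven luciferase reporter stressed by proteasome inhibitor MG132; luminescence from HSF1-driven luciferase expression after 8 hours of MG132 stress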
T1 sequence (P38532 whole entry): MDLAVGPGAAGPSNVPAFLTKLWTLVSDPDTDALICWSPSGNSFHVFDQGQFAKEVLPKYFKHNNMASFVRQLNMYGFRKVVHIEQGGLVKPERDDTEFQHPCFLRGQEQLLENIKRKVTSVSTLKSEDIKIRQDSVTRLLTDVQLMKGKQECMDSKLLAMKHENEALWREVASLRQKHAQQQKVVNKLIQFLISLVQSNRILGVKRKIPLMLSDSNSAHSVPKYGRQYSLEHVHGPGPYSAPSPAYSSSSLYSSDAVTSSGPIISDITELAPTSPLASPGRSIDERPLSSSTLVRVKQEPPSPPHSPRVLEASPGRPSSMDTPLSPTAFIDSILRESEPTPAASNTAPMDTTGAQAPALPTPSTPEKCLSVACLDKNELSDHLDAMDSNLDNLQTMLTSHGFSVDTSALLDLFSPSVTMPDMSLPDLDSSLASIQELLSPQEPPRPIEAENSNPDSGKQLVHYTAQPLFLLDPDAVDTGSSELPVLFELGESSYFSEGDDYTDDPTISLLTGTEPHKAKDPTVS

Escherichia coli = assay: microbe, parasite or virus in culture
[6] = target: G2/mitotic-specific cyclin-B1 (Homo sapiens, UniProt P14635); assay: Counterscreen assay for inhibitors of Wee1 degradation: dose response cell-based assay to identify inhibitors of cyclin B degradation. [Related pubchem assays: 1410, 1321 ]; assay type: functional
[7] = target: Bifunctional protein GlmU (Mycobacterium tuberculosis, UniProt P9WMN3); assay: Inhibitors of Mycobacterial Glucosamine-1-phosphate acetyl transferase (GlmU). Secondary screen.; set-up: species or system Mycobacterium tuberculosis H37Rv
[8] = target: T2, Sentrin-specific protease 6 (Homo sapiens, UniProt Q9GZR1); assay type: functional;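 further: Luminescence-based dose-response confirmatory assay of SENP6 inhibition, following up an ultra-high-throughput screen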
T2 sequence (Q9GZR1 whole entry): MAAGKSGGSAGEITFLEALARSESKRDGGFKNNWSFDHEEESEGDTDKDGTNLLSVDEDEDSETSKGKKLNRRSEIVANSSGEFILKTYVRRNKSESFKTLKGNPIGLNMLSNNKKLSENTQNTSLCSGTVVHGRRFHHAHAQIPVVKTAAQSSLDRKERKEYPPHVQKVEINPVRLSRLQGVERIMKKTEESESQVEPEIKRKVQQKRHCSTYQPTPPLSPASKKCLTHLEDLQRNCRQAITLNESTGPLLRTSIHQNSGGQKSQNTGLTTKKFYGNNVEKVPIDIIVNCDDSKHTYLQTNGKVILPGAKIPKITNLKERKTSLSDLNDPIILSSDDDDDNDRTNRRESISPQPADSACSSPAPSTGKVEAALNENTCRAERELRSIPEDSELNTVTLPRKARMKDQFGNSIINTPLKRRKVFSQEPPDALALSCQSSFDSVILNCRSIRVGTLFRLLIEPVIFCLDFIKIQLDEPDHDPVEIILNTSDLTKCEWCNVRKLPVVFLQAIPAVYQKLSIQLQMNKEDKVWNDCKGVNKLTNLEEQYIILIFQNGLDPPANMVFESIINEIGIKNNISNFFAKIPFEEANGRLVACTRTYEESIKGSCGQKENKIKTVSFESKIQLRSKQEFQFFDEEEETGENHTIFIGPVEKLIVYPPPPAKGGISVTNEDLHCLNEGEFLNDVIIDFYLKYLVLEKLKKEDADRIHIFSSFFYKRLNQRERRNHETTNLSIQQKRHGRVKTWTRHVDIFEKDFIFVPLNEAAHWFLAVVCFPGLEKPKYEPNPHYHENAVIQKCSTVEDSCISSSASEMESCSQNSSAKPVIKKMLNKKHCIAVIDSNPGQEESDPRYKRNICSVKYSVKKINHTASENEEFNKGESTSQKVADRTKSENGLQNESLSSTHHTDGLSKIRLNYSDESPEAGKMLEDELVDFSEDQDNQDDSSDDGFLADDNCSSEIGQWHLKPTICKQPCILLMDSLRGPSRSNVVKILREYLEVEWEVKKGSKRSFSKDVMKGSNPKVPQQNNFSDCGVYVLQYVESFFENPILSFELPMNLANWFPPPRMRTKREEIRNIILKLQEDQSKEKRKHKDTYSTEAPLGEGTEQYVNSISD

[9] = target: T3, Sentrin-specific protease 8 (Homo sapiens, UniProt Q96LD8); assay type: functional;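 further: luminescence read-out of SENP8 inhibition, dose-response confirmation following an ultra-high-throughput screen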
T3 sequence (Q96LD8 whole entry): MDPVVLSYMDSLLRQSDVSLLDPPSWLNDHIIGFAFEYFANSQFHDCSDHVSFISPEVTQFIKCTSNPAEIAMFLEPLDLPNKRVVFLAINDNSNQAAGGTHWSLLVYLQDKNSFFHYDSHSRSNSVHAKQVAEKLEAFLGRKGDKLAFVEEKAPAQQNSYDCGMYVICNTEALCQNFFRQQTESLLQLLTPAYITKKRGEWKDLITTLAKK

[10] = target: Serine/threonine-protein phosphatase PP1-alpha catalytic subunit (Homo sapiens, UniProt P62136); assay: inhibition of protein phosphatase 1 activity – biochemical, fluorescence, dose response (AID 2394)
[11] = rise of 2N DNA cells, HeLa – IC50, dose response (AID 1117349); assay type: functional, cell-based
[12] = target: Small ubiquitin-related modifier 1 (Homo sapiens, UniProt P63165); assay: SUMO1 protein interaction blockers, potency – biochemical, fluorescence polarization, uHTS hits, dose response (AID 624382); assay type: functional; details: read-out: IC50_Mean
[13] = target: Heat shock 70 kDa protein 1A (Homo sapiens, UniProt P0DMV8); assay: small molecules displacing fluorescent ligand from Hsp70 – biochemical, fluorescence polarization, primary screen (AID 583)
[14] = CCR5-tropic HIV-1 fusion blockers – cell-based, CCR5-tropic Env, dose response (AID 2279); assay type: functional

Sequence of ATP-dependent molecular chaperone HSP82 (C4YTQ8 whole entry): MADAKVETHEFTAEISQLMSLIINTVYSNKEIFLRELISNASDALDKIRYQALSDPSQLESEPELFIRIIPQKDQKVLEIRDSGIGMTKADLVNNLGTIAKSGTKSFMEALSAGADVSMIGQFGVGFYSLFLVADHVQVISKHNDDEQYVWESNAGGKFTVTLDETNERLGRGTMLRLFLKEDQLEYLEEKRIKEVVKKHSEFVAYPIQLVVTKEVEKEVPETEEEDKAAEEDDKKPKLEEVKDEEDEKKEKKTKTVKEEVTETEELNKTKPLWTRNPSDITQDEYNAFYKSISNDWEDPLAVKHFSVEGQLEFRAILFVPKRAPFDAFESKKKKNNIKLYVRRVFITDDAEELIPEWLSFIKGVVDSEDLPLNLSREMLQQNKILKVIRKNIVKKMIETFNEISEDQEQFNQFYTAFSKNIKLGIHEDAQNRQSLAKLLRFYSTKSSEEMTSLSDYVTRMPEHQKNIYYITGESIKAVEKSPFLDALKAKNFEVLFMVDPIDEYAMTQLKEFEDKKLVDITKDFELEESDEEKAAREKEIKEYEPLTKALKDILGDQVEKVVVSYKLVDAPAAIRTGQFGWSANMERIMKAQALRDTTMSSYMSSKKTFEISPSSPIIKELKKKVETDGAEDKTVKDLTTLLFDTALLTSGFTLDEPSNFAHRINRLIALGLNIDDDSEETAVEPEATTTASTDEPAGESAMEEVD
Sequence of Genome polyprotein (P29990 2492-3391 limits assumed): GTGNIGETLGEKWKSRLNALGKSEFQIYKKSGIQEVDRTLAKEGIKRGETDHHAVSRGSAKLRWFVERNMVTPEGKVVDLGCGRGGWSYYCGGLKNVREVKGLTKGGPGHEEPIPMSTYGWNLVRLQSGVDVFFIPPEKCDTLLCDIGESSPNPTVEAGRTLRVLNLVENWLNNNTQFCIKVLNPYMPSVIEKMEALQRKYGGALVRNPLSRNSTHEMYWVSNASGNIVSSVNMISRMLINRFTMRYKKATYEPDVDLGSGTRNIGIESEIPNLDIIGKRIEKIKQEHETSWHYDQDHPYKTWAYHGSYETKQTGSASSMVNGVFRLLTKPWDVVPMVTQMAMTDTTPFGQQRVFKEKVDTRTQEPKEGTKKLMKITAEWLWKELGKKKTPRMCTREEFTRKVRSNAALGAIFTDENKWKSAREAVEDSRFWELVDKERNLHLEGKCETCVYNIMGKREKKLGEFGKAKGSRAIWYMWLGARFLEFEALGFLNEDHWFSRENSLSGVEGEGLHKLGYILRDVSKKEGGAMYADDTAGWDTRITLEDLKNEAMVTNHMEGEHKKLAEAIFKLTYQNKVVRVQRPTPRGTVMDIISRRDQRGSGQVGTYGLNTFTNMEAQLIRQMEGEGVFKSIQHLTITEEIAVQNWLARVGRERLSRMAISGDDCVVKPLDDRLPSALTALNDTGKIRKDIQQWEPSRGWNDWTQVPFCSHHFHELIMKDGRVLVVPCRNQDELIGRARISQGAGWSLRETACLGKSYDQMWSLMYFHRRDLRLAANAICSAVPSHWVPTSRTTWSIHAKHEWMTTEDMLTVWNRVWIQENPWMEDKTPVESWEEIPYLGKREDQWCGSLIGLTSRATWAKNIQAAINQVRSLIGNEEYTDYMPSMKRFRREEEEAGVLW
Sequence of Heat shock 70 kDa protein 1A (P0DMV8 whole entry, the tested form may be a part): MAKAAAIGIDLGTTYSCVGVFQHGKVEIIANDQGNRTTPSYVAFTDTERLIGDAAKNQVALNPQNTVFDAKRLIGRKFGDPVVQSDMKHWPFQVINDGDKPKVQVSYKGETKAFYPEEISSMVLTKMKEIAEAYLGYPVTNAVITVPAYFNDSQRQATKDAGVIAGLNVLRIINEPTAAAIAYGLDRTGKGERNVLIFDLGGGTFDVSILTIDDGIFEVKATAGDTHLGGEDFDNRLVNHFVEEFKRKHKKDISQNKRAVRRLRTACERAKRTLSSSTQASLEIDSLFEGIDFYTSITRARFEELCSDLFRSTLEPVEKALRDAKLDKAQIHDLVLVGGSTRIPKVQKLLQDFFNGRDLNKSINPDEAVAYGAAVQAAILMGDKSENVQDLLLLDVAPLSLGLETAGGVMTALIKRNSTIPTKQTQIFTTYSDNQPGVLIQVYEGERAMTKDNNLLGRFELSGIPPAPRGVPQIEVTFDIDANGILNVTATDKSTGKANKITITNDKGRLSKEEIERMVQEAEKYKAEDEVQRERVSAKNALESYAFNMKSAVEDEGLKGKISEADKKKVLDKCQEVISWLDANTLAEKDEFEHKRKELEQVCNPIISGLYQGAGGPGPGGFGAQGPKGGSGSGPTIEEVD
Sequence of Serine/threonine-protein phosphatase PP1-alpha catalytic subunit (P62136 whole entry): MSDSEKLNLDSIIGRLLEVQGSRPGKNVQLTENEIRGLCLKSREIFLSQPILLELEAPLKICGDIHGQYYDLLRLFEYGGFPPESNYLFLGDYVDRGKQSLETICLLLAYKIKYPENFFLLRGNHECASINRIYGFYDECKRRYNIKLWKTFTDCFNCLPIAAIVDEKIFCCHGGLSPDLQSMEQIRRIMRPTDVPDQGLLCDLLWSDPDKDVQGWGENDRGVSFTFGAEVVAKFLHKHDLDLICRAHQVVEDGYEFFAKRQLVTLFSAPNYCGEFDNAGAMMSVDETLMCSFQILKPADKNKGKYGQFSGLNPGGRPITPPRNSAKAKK
Sequence of Bifunctional protein GlmU (P9WMN3 whole entry): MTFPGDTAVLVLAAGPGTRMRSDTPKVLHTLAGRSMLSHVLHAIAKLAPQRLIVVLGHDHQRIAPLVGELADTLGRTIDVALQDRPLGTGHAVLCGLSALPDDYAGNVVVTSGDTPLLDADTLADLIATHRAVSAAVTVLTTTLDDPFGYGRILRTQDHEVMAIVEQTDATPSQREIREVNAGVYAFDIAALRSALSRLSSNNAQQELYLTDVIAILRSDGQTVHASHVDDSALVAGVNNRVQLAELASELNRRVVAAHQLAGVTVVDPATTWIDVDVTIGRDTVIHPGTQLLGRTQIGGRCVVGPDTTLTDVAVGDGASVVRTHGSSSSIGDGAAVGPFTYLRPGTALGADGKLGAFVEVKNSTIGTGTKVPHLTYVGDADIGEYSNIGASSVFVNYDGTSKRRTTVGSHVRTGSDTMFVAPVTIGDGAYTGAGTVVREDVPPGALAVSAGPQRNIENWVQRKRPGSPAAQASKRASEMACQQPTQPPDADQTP
Sequence of Glucose-6-phosphate 1-dehydrogenase (P11413 whole entry): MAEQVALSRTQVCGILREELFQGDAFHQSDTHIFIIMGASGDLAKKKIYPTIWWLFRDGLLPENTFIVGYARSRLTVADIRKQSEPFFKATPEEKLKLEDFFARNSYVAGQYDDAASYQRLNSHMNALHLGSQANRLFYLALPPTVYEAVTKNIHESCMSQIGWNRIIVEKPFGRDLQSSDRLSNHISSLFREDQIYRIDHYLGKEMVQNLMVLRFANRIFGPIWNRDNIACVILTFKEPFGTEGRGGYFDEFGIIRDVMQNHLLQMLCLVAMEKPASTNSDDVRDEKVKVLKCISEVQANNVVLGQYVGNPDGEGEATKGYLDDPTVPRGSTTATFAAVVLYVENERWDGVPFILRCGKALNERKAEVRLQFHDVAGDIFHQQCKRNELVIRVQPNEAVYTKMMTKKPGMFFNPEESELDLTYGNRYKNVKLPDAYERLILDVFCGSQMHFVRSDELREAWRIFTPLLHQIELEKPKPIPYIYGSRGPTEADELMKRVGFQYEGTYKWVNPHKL
Sequence of G2/mitotic-specific cyclin-B1 (P14635 whole entry): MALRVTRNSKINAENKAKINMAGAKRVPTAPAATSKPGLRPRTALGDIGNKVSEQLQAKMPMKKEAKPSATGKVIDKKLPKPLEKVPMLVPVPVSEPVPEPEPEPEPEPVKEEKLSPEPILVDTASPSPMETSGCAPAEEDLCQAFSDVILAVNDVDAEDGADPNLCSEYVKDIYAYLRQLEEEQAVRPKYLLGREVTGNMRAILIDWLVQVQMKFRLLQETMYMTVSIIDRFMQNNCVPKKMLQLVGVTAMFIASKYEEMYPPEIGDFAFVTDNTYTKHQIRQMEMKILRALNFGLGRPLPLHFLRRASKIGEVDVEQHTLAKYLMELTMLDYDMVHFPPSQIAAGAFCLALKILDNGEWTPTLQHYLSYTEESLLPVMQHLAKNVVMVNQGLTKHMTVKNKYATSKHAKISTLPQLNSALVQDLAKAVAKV
Sequence of Small ubiquitin-related modifier 1 (P63165 whole entry): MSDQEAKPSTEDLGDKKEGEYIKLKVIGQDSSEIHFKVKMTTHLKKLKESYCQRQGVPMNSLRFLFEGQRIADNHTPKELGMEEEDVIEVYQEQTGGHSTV

CCc1ccc(S(=O)(=O)Nc2cc(SCC(=O)O)c(O)c3ccccc23)cc1
IC50 (Genome polyprotein): 9.53 µM (active) | IC50 [1]: 50 µM (inactive)

CCCC(=O)NC(c1ccc(C(C)C)cc1)c1ccc2cccnc2c1O (configuration not stated)
EC50 [2]: > 160 µM (inactive) | EC50 (BJ): 2.3 µM (active) | AC50 [3]: 1.91 µM (active) | IC50 [4]: > 119 µM (inactive) | EC50 [5]: 1.63 µM (active)

O=[N+]([O-])c1ccc(Sc2cccc[n+]2[O-])c2nonc12
AC50 (Escherichia coli): 5.53 µM (active) | EC50 [6]: > 49.7 µM (not active) | IC50 [7]: 72.6 µM (active)

N#Cc1c(N2CCCCC2)nc(N)c2c(N)nc(SCC(=O)O)cc12
IC50 [8]: 8.26 µM (active) | IC50 [9]: 10.6 µM (active) | IC50 [10]: 44.1 µM (not active)

Oc1c(Cl)cc(Cl)c(Cl)c1Cc1c(O)c(Cl)cc(Cl)c1Cl [HEXACHLOROPHENE]
IC50 [11]: > 10 µM (inactive) | IC50 [12]: 5.63 µM (active) | IC50 [13]: 19.5 µM (active) | IC50 [14]: 970 nM (active)
